PMC7180948, “New Insights into 4-Anilinoquinazolines as Inhibitors of Cardiac Troponin I–Interacting Kinase (TNNi3K)” (Molecules, 2020)

Assays:
Test in all cases: biochemical
Parameters in all cases: KINOMEscan competition binding panel (Eurofins DiscoverX), single concentration, percent inhibition
Settings in all cases: read-out: 15 at 1 µM % inhibition
CDK4 = CDK4 (Homo sapiens, UniProt P11802)
Outline: (§1)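 KINOMEscan selectivity screen; >400 human kinases; compound at 1 µM, single concentration.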

WEE2 = WEE2 (Homo sapiens, UniProt P0C1S8)
Outline: as §1

CHEK2 = CHEK2 (Homo sapiens, UniProt O96017)
Outline: as §1

LRRK2(G2019S) = LRRK2(G2019S) (Homo sapiens, UniProt Q5S007, G2019S)
Outline: as §1

GSK3B = GSK3B (Homo sapiens, UniProt P49841)
Outline: as §1

MYO3A = MYO3A (Homo sapiens, UniProt Q8NEV4)
Outline: as §1

RIPK1 = RIPK1 (Homo sapiens, UniProt Q13546)
Outline: as §1

RIPK5 = target: T1, RIPK5 (Homo sapiens, UniProt Q6XUX3)
T1 construct: gene DSTYK
Outline: as §1

TRKB = target: T2, TRKB (Homo sapiens, UniProt Q16620)
T2 construct: gene NTRK2
Outline: as §1

PRP4 = target: T3, PRP4 (Homo sapiens, UniProt Q13523)
T3 construct: gene PRPF4B
Outline: as §1

PRKCH = PRKCH (Homo sapiens, UniProt P24723)
Outline: as §1

FLT1 = FLT1 (Homo sapiens, UniProt P17948)
Outline: as §1

KIT(D816H) = KIT(D816H) (Homo sapiens, UniProt P10721, D816H)
Outline: as §1

HIPK2 = HIPK2 (Homo sapiens, UniProt Q9H2X6)
Outline: as §1

[1] = target: T4, ABL1(Y253F)-phosphorylated (Homo sapiens, UniProt P00519, Y253F)
T4 construct: phosphorylated
Outline: as §1

MST3 = target: T5, MST3 (Homo sapiens, UniProt Q9Y6E0)
T5 construct: gene STK24
Outline: as §1

HIPK3 = HIPK3 (Homo sapiens, UniProt Q9H422)
Outline: as §1

FRK = FRK (Homo sapiens, UniProt P42685)
Outline: as §1

CDC2L2 = target: T6, CDC2L2 (Homo sapiens, UniProt Q9UQ88)
T6 construct: gene CDK11A
Outline: as §1

TXK = TXK (Homo sapiens, UniProt P42681)
Outline: as §1

CSNK1A1 = CSNK1A1 (Homo sapiens, UniProt P48729)
Outline: as §1

KIT(D816V) = KIT(D816V) (Homo sapiens, UniProt P10721, D816V)
Outline: as §1

CAMK4 = CAMK4 (Homo sapiens, UniProt Q16566)
Outline: as §1

TGFBR1 = TGFBR1 (Homo sapiens, UniProt P36897)
Outline: as §1

Sequence of TXK (P42681 whole entry): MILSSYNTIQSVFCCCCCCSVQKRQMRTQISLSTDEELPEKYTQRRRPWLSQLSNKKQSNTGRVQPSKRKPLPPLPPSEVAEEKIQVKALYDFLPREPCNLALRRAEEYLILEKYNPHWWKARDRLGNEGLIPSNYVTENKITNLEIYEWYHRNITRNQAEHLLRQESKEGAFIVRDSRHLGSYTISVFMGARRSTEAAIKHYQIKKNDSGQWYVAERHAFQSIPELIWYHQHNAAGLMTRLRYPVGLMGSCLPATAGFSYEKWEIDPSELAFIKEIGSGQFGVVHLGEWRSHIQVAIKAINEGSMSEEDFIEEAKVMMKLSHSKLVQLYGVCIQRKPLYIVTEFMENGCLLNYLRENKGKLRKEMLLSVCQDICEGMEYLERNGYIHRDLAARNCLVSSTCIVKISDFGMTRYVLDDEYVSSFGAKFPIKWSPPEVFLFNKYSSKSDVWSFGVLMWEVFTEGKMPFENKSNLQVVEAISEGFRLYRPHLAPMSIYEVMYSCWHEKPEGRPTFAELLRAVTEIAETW
Sequence of GSK3B (P49841 whole entry): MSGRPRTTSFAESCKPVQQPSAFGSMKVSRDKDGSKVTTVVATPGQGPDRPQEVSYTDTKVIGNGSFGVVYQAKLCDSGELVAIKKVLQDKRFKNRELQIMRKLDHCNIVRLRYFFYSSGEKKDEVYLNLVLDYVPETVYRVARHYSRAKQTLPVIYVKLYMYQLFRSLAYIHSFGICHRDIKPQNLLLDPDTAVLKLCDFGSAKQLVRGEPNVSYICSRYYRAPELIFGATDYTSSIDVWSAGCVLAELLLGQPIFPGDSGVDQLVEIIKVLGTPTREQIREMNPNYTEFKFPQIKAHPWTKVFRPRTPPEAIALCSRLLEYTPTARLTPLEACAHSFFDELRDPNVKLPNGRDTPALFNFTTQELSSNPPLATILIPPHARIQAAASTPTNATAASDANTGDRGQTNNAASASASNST
T2 sequence (Q16620 whole entry): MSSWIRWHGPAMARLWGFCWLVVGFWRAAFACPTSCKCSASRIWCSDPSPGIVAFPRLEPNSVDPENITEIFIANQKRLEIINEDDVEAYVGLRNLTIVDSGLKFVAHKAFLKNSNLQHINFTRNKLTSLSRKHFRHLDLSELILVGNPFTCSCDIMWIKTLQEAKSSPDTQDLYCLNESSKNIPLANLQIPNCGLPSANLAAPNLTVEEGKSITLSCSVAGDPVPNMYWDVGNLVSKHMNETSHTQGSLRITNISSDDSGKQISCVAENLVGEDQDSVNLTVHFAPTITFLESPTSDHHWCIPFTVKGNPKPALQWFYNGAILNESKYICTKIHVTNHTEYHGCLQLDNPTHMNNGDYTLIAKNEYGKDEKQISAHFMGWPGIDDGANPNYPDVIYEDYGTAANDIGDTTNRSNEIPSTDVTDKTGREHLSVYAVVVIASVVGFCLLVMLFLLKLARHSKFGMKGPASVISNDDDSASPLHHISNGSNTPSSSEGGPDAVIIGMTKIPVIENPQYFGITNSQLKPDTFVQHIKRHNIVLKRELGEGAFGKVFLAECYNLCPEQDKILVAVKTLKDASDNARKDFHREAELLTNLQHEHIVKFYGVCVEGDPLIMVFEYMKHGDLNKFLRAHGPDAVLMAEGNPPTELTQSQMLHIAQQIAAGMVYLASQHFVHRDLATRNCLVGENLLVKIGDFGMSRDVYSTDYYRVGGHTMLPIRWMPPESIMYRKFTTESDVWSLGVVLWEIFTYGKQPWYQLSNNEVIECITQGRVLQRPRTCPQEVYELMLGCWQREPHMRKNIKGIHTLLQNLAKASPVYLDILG
Sequence of HIPK2 (Q9H2X6 whole entry): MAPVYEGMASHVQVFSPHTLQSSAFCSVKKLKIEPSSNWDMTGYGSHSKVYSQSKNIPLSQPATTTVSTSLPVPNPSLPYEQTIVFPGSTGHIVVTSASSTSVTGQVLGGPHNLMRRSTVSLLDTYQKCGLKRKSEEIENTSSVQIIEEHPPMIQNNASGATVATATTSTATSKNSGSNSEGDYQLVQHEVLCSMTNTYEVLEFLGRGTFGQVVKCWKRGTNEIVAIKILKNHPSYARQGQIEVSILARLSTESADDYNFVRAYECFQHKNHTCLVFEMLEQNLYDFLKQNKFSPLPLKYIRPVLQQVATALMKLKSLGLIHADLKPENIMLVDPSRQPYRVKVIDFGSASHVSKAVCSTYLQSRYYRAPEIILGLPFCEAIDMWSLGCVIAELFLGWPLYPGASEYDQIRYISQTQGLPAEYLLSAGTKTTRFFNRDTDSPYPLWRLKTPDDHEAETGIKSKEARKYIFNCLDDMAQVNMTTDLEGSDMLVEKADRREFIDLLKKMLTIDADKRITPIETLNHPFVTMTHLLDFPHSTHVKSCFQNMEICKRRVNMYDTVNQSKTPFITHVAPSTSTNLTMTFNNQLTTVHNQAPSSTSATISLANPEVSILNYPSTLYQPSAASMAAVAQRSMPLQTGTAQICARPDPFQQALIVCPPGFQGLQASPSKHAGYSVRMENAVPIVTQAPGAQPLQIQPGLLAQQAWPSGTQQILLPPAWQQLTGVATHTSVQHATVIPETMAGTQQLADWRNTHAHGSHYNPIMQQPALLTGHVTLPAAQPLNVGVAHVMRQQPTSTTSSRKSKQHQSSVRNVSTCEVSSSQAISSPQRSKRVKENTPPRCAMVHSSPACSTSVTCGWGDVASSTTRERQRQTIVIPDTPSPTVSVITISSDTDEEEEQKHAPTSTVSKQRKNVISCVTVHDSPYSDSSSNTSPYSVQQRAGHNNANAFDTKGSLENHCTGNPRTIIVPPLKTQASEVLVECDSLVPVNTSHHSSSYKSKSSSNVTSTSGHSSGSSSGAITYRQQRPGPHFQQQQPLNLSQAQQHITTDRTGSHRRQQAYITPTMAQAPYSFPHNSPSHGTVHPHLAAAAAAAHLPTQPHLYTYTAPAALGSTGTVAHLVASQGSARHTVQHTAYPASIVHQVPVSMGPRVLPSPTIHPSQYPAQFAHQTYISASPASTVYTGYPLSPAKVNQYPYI
T5 sequence (Q9Y6E0 whole entry): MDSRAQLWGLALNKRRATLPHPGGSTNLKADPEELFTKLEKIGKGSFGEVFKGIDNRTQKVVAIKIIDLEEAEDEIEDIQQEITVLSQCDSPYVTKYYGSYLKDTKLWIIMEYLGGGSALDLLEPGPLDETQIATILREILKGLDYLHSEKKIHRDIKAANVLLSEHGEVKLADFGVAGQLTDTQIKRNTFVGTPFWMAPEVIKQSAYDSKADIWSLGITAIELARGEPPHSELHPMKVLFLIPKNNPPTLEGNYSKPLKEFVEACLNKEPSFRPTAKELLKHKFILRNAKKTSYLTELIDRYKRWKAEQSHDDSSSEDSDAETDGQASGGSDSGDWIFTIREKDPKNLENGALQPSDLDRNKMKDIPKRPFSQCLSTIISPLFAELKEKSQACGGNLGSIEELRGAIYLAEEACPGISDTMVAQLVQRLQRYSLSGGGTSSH
Sequence of TGFBR1 (P36897 whole entry): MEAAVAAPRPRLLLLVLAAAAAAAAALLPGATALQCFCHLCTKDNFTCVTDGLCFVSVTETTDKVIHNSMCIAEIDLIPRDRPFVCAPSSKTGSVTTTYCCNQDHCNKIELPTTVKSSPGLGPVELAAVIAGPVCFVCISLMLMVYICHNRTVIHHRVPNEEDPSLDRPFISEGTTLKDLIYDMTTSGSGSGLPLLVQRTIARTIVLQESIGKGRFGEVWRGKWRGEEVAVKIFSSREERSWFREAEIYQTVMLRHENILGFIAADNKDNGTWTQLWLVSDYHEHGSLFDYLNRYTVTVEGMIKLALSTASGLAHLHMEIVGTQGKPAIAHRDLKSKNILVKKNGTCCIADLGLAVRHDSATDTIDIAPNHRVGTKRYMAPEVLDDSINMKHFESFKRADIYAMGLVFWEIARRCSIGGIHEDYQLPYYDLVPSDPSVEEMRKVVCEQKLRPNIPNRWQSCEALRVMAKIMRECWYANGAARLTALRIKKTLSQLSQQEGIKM
Sequence of KIT(D816V) (P10721 whole entry D816V): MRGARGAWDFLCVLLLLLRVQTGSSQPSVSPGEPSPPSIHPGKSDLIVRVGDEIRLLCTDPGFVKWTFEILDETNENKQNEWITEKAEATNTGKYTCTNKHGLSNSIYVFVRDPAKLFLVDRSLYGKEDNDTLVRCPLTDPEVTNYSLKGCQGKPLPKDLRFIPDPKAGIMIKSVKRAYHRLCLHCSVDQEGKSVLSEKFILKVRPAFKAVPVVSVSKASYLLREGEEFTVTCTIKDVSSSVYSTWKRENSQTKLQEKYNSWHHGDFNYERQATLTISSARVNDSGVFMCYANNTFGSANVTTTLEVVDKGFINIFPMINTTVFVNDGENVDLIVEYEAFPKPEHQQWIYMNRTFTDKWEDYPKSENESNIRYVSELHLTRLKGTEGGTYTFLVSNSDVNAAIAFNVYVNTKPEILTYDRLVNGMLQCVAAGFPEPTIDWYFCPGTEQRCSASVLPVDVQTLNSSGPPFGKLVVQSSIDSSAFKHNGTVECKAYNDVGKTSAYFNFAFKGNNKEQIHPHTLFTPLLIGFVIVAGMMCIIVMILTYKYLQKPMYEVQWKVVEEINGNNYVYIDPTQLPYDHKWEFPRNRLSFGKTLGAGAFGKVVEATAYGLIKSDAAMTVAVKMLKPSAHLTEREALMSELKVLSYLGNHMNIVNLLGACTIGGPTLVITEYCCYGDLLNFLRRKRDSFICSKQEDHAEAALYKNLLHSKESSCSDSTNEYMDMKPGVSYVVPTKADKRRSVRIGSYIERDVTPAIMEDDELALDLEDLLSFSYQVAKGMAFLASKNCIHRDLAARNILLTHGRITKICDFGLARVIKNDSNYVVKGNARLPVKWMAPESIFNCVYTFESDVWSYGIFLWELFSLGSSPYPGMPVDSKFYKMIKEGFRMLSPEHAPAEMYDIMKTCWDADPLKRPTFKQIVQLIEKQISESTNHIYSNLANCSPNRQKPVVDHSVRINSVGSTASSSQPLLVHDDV
Sequence of KIT(D816H) (P10721 whole entry D816H): as the sequence (P10721 whole entry D816V) above, with V816H counted along it

inhibition at 1 µM (CDK4): 21%
inhibition at 1 µM (WEE2): 0%
inhibition at 1 µM (CHEK2): 13%
inhibition at 1 µM (LRRK2(G2019S)): 8%
inhibition at 1 µM (GSK3B): 17%
inhibition at 1 µM (MYO3A): 0%
inhibition at 1 µM (RIPK1): 37%
inhibition at 1 µM (RIPK5): 12%
inhibition at 1 µM (TRKB): 22%
inhibition at 1 µM (PRP4): 52%
inhibition at 1 µM (PRKCH): 0%
inhibition at 1 µM (FLT1): 0%
inhibition at 1 µM (KIT(D816H)): 16%
inhibition at 1 µM (HIPK2): 9%
inhibition at 1 µM [1]: 18%
inhibition at 1 µM (MST3): 0%
inhibition at 1 µM (HIPK3): 28%
inhibition at 1 µM (FRK): 0%
inhibition at 1 µM (CDC2L2): 0%
inhibition at 1 µM (TXK): 5%
inhibition at 1 µM (CSNK1A1): 0%
inhibition at 1 µM (KIT(D816V)): 4%
inhibition at 1 µM (CAMK4): 1%
inhibition at 1 µM (TGFBR1): 0%
SMILES: CNS(=O)(=O)c1ccc(N(C)C)c(Nc2nc(C)nc3cc(OC)c(OC)cc23)c1 [compound 15, 3-((6,7-dimethoxy-2-methylquinazolin-4-yl)amino)-4-(dimethylamino)-N-methylbenzenesulfonamide]
